Legend:
[1] = target: T1, 5-hydroxytryptamine receptor 1A (Homo sapiens, UniProt P08908); assay: Displacement of [3H]8-OH-DPAT from human 5HT1A receptor expressed in CHO cells; type: cell-based
T1 sequence (P08908 whole entry): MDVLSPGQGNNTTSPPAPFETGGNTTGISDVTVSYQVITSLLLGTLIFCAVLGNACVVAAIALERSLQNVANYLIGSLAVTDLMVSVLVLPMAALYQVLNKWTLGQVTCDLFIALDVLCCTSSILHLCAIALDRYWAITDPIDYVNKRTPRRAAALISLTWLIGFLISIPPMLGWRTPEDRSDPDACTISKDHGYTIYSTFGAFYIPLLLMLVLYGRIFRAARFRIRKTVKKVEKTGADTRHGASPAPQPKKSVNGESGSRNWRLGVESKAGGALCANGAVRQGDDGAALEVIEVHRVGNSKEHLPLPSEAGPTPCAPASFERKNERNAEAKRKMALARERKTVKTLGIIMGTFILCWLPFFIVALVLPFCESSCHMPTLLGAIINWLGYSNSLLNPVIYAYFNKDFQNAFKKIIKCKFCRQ

[2] = target: 5-hydroxytryptamine receptor 6 (Homo sapiens, UniProt P50406); assay: Binding affinity to human 5HT6 receptor
[3] = Binding affinity to imidazoline receptor
[4] = Binding affinity to sodium channel
[5] = target: D(1A) dopamine receptor (Homo sapiens, UniProt P21728); assay: Binding affinity to dopamine D1 receptor
[6] = target: Glutamate [NMDA] receptor; assay: Binding affinity to NMDA receptor; type: protein-complex assay
[7] = target: Kappa-type opioid receptor (Homo sapiens, UniProt P41145); assay: Binding affinity to kappa opioid receptor
[8] = target: Mu-type opioid receptor (Homo sapiens, UniProt P35372); assay: Binding affinity to mu opioid receptor
[9] = target: Adenosine receptor A2a (Homo sapiens, UniProt P29274); assay: Binding affinity to adenosine […] receptor
Adenosine receptor A2a, sequence (P29274 whole entry): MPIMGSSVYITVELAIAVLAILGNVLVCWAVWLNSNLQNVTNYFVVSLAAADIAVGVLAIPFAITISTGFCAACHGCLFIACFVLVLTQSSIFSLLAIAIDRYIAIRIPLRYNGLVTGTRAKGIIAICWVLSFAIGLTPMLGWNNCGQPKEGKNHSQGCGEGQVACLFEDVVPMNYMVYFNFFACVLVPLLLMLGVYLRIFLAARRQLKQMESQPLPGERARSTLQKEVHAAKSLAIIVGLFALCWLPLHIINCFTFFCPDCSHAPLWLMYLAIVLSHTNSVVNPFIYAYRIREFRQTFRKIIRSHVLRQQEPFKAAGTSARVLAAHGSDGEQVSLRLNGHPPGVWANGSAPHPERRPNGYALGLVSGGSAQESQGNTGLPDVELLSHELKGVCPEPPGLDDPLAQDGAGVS

[10] = target: Sodium-dependent serotonin transporter (Homo sapiens, UniProt P31645); assay: Binding affinity to SERT
[11] = target: Beta-3 adrenergic receptor (Homo sapiens, UniProt P13945); assay: Binding affinity to adrenergic beta-3 receptor
[12] = target: Adenosine A2 receptor (Homo sapiens, UniProt P29275+P29274); assay: Binding affinity to adenosine A2 receptor; type: protein assay
[13] = target: Sigma non-opioid intracellular receptor 1 (Homo sapiens, UniProt Q99720); assay: Binding affinity to sigma1 receptor
Sigma non-opioid intracellular receptor 1, sequence (Q99720 whole entry): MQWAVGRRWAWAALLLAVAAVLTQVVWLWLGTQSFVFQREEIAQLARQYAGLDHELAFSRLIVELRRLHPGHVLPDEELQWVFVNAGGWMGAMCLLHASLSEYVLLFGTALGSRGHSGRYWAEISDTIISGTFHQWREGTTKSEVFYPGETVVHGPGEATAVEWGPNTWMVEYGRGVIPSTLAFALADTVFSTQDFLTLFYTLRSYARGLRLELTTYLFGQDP

[14] = target: Beta-1 adrenergic receptor (Homo sapiens, UniProt P08588); assay: Binding affinity to adrenergic beta-1 receptor
Beta-1 adrenergic receptor, sequence (P08588 whole entry): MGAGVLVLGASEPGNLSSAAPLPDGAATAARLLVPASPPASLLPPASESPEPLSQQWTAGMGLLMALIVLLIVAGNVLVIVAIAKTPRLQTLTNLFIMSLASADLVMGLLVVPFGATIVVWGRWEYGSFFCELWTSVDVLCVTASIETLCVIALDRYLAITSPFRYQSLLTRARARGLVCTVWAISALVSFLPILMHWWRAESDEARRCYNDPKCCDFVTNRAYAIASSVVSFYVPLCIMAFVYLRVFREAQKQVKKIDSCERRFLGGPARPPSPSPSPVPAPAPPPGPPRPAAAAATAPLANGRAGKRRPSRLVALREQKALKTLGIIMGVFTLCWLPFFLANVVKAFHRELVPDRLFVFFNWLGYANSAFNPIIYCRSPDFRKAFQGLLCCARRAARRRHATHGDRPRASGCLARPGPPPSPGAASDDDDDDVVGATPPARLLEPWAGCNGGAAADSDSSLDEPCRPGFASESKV

[15] = target: 5-hydroxytryptamine receptor 5A (Homo sapiens, UniProt P47898); assay: Binding affinity to human 5HT5A receptor
[16] = target: 5-hydroxytryptamine receptor 7 (Homo sapiens, UniProt P34969); assay: Binding affinity to human 5HT7 receptor
5-hydroxytryptamine receptor 7, sequence (P34969 whole entry): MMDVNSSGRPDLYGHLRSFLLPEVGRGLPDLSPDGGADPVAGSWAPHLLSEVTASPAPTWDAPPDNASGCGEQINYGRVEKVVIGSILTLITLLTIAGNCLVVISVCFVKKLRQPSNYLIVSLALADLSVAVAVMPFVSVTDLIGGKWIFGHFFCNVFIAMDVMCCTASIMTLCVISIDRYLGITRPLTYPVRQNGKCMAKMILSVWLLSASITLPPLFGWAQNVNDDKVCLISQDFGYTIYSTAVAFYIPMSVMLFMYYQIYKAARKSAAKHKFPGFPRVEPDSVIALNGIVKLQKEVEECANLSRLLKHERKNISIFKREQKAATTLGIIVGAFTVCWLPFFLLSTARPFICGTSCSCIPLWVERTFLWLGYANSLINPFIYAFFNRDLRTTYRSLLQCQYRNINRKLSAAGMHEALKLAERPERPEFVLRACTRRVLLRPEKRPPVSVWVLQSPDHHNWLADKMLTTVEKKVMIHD

[17] = target: Muscarinic acetylcholine receptor; assay: Binding affinity to muscarinic receptor; type: protein assay
[18] = target: T1, 5-hydroxytryptamine receptor 1A; assay: Agonistic activity at human 5HT1A receptor by [35S]GTP-gamma-S binding; type: functional
[19] = target: Delta-type opioid receptor (Homo sapiens, UniProt P41143); assay: Binding affinity to Delta opioid receptor
Delta-type opioid receptor, sequence (P41143 whole entry): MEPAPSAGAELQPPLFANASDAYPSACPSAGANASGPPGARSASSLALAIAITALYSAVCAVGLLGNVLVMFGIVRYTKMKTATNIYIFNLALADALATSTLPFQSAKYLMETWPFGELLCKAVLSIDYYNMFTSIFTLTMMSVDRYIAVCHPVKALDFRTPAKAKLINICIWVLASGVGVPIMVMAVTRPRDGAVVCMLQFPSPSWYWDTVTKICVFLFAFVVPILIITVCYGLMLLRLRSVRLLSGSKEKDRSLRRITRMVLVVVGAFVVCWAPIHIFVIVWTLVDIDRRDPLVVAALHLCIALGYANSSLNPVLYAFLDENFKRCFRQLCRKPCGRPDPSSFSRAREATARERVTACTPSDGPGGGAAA

[20] = target: D(3) dopamine receptor (Homo sapiens, UniProt P35462); assay: Binding affinity to dopamine D3 receptor
[21] = Binding affinity to GABA receptor
[22] = target: Vasopressin V2 receptor (Homo sapiens, UniProt P30518); assay: Binding affinity to vasopressin 2 receptor
Vasopressin V2 receptor, sequence (P30518 whole entry): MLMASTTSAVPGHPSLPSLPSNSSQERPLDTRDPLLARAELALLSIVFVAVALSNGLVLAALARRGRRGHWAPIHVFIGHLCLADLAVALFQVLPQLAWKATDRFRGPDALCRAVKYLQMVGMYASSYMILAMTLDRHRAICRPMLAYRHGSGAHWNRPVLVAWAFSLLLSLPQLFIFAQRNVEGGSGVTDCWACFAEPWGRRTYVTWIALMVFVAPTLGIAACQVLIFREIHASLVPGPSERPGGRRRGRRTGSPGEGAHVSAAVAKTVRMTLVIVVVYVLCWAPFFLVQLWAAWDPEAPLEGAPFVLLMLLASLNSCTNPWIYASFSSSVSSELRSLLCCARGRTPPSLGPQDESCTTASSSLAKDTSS

[23] = target: Synaptic vesicular amine transporter (Homo sapiens, UniProt Q05940); assay: Binding affinity to VMAT2
[24] = target: D(1B) dopamine receptor (Homo sapiens, UniProt P21918); assay: Binding affinity to dopamine D5 receptor
D(1B) dopamine receptor, sequence (P21918 whole entry): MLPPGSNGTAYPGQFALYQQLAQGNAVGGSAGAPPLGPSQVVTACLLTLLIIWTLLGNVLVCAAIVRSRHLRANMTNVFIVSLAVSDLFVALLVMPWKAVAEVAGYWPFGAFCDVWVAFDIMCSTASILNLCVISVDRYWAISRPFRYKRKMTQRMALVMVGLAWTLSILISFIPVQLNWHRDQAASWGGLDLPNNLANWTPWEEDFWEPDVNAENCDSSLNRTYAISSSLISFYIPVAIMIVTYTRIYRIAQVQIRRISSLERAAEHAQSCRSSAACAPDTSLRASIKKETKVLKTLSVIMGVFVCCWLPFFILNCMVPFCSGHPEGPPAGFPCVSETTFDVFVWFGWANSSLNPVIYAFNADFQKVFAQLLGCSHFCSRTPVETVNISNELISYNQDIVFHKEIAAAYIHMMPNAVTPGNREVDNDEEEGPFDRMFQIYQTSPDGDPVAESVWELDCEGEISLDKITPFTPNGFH

[25] = target: 5-hydroxytryptamine receptor 2A (Homo sapiens, UniProt P28223); assay: Binding affinity to human 5HT2A receptor
[26] = target: Cannabinoid receptor 2 (Homo sapiens, UniProt P34972); assay: Binding affinity to CB2 receptor
[27] = Binding affinity to prostanoid receptor
[28] = target: D(4) dopamine receptor (Homo sapiens, UniProt P21917); assay: Binding affinity to dopamine D4 receptor
[29] = target: Alpha-2C adrenergic receptor (Homo sapiens, UniProt P18825); assay: Binding affinity to adrenergic alpha-2C receptor
[30] = target: Alpha-2A adrenergic receptor (Homo sapiens, UniProt P08913); assay: Binding affinity to adrenergic alpha-2A receptor
[31] = Binding affinity to mGluR
[32] = target: Chromaffin granule amine transporter (Homo sapiens, UniProt P54219); assay: Binding affinity to VMAT1
[33] = target: Histamine H4 receptor (Homo sapiens, UniProt Q9H3N8); assay: Binding affinity to histamine H4 receptor
[34] = target: Sodium-dependent dopamine transporter (Homo sapiens, UniProt Q01959); assay: Binding affinity to DAT
[35] = target: Alpha-2B adrenergic receptor (Homo sapiens, UniProt P18089); assay: Binding affinity to adrenergic alpha-2B receptor
Alpha-2B adrenergic receptor, sequence (P18089 whole entry): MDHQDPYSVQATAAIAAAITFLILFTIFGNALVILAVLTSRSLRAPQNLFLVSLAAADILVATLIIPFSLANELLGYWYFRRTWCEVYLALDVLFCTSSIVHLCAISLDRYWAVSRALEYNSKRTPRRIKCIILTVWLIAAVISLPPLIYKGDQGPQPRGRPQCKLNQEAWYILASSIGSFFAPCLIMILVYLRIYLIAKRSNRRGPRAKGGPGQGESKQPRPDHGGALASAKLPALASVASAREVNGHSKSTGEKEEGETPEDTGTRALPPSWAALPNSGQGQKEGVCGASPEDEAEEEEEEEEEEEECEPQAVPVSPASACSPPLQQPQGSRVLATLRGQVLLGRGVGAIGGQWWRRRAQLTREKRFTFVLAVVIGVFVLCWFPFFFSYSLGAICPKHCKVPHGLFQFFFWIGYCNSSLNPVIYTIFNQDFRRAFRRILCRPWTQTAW

[36] = target: Sodium-dependent noradrenaline transporter (Homo sapiens, UniProt P23975); assay: Binding affinity to NET
[37] = target: Glutamate receptor ionotropic AMPA (Homo sapiens, UniProt P42261+P42262+P42263+P48058); assay: Binding affinity to AMPA receptor; type: protein-complex assay
[38] = Binding affinity to NK receptor
[39] = target: Adrenergic receptor alpha-1 (Homo sapiens, UniProt P35348+P25100+P35368); assay: Binding affinity to adrenergic alpha-1 receptor; type: protein assay
[40] = target: 5-hydroxytryptamine receptor 2C (Homo sapiens, UniProt P28335); assay: Binding affinity to human 5HT2C receptor
[41] = target: Serotonin 3 (5-HT3) receptor; assay: Binding affinity to human 5HT3 receptor; type: protein-complex assay
[42] = target: T1, 5-hydroxytryptamine receptor 1A; assay: Agonistic activity at human 5HT1A in CHO cells by the inhibition of forskolin-stimulated cAMP accumulation; type: functional, cell-based
[43] = target: ATP-dependent translocase ABCB1 (Homo sapiens, UniProt P08183); assay: Binding affinity to MDR1
[44] = target: Histamine H3 receptor (Homo sapiens, UniProt Q9Y5N1); assay: Binding affinity to histamine H3 receptor
[45] = Binding affinity to calcium channel
[46] = target: Voltage-gated inwardly rectifying potassium channel KCNH2 (Homo sapiens, UniProt Q12809); assay: Binding affinity to hERG
Voltage-gated inwardly rectifying potassium channel KCNH2, sequence (Q12809 whole entry): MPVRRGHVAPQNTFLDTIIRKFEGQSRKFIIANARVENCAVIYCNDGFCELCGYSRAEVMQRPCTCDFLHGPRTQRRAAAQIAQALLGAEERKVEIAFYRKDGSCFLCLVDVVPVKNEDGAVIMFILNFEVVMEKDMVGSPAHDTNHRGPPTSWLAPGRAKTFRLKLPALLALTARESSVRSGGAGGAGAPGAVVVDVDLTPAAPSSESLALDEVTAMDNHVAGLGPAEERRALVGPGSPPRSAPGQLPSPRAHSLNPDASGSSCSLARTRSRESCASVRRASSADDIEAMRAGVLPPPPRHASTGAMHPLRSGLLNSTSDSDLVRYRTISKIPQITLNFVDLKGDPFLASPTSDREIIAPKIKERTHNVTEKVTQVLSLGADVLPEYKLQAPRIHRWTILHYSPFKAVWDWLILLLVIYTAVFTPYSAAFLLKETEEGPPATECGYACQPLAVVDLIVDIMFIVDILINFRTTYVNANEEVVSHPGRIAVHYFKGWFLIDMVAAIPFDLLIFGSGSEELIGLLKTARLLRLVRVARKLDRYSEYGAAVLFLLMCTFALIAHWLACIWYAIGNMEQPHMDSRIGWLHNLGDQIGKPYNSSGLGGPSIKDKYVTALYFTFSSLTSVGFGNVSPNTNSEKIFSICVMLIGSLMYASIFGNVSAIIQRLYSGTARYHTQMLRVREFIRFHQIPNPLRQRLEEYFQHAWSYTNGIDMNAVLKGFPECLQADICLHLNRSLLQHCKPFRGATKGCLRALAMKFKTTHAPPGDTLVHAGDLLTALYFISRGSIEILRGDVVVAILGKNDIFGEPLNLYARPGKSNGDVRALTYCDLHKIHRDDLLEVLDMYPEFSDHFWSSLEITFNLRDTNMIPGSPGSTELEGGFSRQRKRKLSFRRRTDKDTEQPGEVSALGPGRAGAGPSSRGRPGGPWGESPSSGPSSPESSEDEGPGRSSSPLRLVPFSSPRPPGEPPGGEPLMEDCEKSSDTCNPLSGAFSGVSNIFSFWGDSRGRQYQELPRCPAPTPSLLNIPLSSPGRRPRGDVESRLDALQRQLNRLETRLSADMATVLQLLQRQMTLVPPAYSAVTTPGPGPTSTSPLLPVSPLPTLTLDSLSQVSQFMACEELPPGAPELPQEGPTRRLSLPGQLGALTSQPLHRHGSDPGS

[47] = target: Histamine H2 receptor (Homo sapiens, UniProt P25021); assay: Binding affinity to histamine H2 receptor
[48] = target: Adenosine receptor A3 (Homo sapiens, UniProt P0DMS8); assay: Binding affinity to adenosine A3 receptor
Adenosine receptor A3, sequence (P0DMS8 whole entry): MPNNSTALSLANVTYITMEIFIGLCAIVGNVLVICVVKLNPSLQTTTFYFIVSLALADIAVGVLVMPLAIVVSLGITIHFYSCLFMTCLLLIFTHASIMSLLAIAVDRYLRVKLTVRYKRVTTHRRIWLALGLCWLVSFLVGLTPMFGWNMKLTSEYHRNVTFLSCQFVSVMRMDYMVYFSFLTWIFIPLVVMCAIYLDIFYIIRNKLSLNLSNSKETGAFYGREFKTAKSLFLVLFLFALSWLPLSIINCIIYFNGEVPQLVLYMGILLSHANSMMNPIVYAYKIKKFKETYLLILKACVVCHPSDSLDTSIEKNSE

[49] = target: Cannabinoid receptor 1 (Homo sapiens, UniProt P21554); assay: Binding affinity to CB1 receptor
[50] = target: Sigma 2 receptor; assay: Binding affinity to sigma2 receptor
[51] = target: D(2) dopamine receptor (Homo sapiens, UniProt P14416); assay: Binding affinity to dopamine D2 receptor
[52] = target: Tumor necrosis factor receptor superfamily member 16 (Homo sapiens, UniProt P08138); assay: Binding affinity to neurotrophin receptor
[53] = target: Beta-2 adrenergic receptor (Homo sapiens, UniProt P07550)
[54] = target: Vasopressin V1 receptor (Homo sapiens, UniProt P37288+P47901); assay: Binding affinity to vasopressin 1 receptor; type: protein assay
[55] = target: Histamine H1 receptor (Homo sapiens, UniProt P35367); assay: Binding affinity to histamine H1 receptor

Cn1c(=O)cnn(CCCCN2CCN(c3cccc4ccc(O[11CH3])cc34)CC2)c1=O
Ki [1]: 1.36 nM | Ki [2]: 120 nM | Ki [3]: > 10000 nM | Ki [4]: > 10000 nM | Ki [5]: 7400 nM | Ki [6]: > 10000 nM | Ki [7]: > 10000 nM | Ki [8]: > 10000 nM | Ki [9]: > 10000 nM | Ki [10]: 6140 nM | Ki [11]: > 10000 nM | Ki [12]: > 10000 nM | Ki [13]: 480 nM | Ki [14]: 476 nM | Ki [15]: 229 nM | Ki [16]: 9.1 nM | Ki [17]: > 10000 nM | EC50 [18]: 0.05 nM | Ki [19]: > 10000 nM | Ki [20]: 62.8 nM | Ki [21]: > 10000 nM | Ki [22]: > 10000 nM | Ki [23]: > 10000 nM | Ki [24]: > 10000 nM | Ki [25]: 41.5 nM | Ki [26]: > 10000 nM | Ki [27]: > 10000 nM | Ki [28]: 8.5 nM | Ki [29]: 23.7 nM | Ki [30]: 1010 nM | Ki [31]: > 10000 nM | Ki [32]: > 10000 nM | Ki [33]: > 10000 nM | Ki [34]: 407 nM | Ki [35]: 316 nM | Ki [36]: 6980 nM | Ki [37]: > 10000 nM | Ki [38]: > 10000 nM | Ki [39]: 32.2 nM | Ki [40]: 99.6 nM | Ki [41]: > 10000 nM | EC50 [42]: 0.01 nM | Ki [43]: > 10000 nM | Ki [44]: > 10000 nM | Ki [45]: > 10000 nM | Ki [46]: > 10000 nM | Ki [47]: 302 nM | Ki [48]: > 10000 nM | Ki [49]: > 10000 nM | Ki [50]: > 10000 nM | Ki [51]: 22 nM | Ki [52]: > 10000 nM | Ki [53]: 60.6 nM | Ki [54]: > 10000 nM | Ki [55]: 150 nM

— ChEMBL document CHEMBL1148600, “Synthesis and in vivo validation of [O-methyl-11C]2-{4-[4-(7-methoxynaphthalen-1-yl)piperazin- 1-yl]butyl}-4-methyl-2H-[1,2,4]triazine-3,5-dione: a novel 5-HT1A receptor agonist positron emission tomography ligand” (J Med Chem, 2006)
